Laboratory results as given in patent US20070021509A1, “Phosphate transport inhibitors” (priority 2001, published 2007).

system: phosphate uptake by rabbit intestinal Brush Border Membrane Vesicles (BBMV); assay: 33PO4 uptake in rabbit intestinal BBMV (HTS), phosphate transporter inhibition in vitro; assay type: biochemical; details: Table 1, phosphate uptake, read-out: IC50
Protocol: The following example outlines the procedures required for in vitro measurement of the inhibition of phosphate uptake by rabbit intestinal Brush Border Membrane Vesicles (BBMV).
Rabbit Intestinal Brush Border Membrane Vesicles (BBMV) were isolated from mucosal scrapings of the upper small intestine (duodenum) of male New Zealand White rabbits. The scrapings were divided into 2 g aliquots in cryopreservation vials, frozen in liquid nitrogen, and stored at −80° C.
The following procedure was performed for each 2 g sample of BBMV mucosal scraping. Buffer volumes and container sizes were adjusted appropriately for the number of 2 g samples used. The entire preparation was performed on ice, unless otherwise stated.
Mucosal scrapings (2 g per tube) were thawed in a 37° C. water bath for 3 minutes and then placed on ice. The scrapings were suspended with a total of 7.5 ml of 300 MET, and transferred to a 250 mL Corning tube on ice. To the suspension was added 30 mL cold (4° C.) deionized water (dH20). The suspension was homogenized with a tissue homogenizer (Polytron) on high speed for 2 minutes. A stir bar and MgCl2 (81.3 mg) was added. The suspension was mixed well by inverting the closed tube. The suspension was stirred on ice, ensuring that a good vortex is achieved with the stir bar, for 40 minutes. The suspension was transferred to a chilled centrifuge tube and spun at 4000×g for 15 minutes. The supernatant was transferred to a new chilled centrifuge tube and spun at 32000×g for 30 minutes. The supernatant was discarded and the pellet was re-suspended with 34 mL cold 60 MET. The suspension was homogenized with a Dounce homogenizer with 8 strokes. The suspension was transferred to a fresh 250 mL Corning tube. A stir bar and 69.1 mg MgCl2 were added. The suspension was stirred well on ice for 10 minutes. The suspension was transferred to a chilled centrifuge tube and spun at 4000×g for 15 minutes. The supernatant was transferred to a new chilled centrifuge tube and spun at 32000×g for 30 minutes. The supernatant was discarded. At this stage, the preparation could be continued or this pellet (P4) could be frozen in liquid nitrogen and stored at −80° C. When needed, this pellet could be allowed to thaw at room temperature for 5 minutes. Continuing the preparation, the pellet was re-suspended with 34 mL cold 280 MH. The suspension was homogenized in a Dounce homogenize with 8 strokes. The suspension was transferred to a new chilled centrifuge tube and spun at 32000×g for 30 minutes. The supernatant was discarded. To the pellet was added 500 μL 280 MH and the pellet was re-suspended very carefully with a 1 mL tuberculin syringe with a 25-gauge needle with care not to create bubbles. Once the entire pellet was suspended, the suspension was transferred to a chilled 1.5 mL microfuge tube. The suspension was evenly dispersed by bringing the suspension up into the syringe through the 25-gauge needle, and back out again 8 times with care not to create bubbles. The total protein concentration was determined by performing a Bradford Protein Assay. Using that value, the BBMV were diluted with 280 MH to reach approximately 0.5-2.0 mg/mL. The solution was used as soon as possible for uptake studies.
The following experiment was performed using a Beckman Multimek 96-tip robotic pipettor. The following outlines the preparation required to screen one 96-well plate of compounds. However, multiple plates could be screened in one experiment.
To the “Uptake Buffers” was added ^33PO4 to reach 200,000 CPM/19 μL. The buffer solutions were stored at room temperature. The following control solutions were prepared and placed into appropriate wells of a polypropylene, 96-well V-bottom plate (“Hot Stock Plate”):
a. Maximum activity (MAX)−Na Uptake buffer+^33PO4 at 200,000 CPM/19 μL
b. Midline activity (MID)−MAX+100 μM KH2PO4, pH 7.4
c. Minimum activity (MIN)− K Uptake buffer+^33PO4 at 200,000 CPM/19 μL

Row | IC50 [µM] | Compound
1 | > 1500 | O=C(O)c1cc(Br)ccc1NS(=O)(=O)c1ccc(O)c([N+](=O)[O-])c1 [Compound 44]
2 | 101 to 500 | CCCCCc1ccc(S(=O)(=O)Nc2ccc(Br)cc2C(=O)O)cc1 [Compound 28]
3 | 101 to 500 | O=C(O)c1cc(Br)ccc1NS(=O)(=O)c1ccc(Cl)cc1 [Compound 27]
4 | 101 to 500 | O=C(O)c1cc(Br)ccc1NS(=O)(=O)c1ccc(Br)cc1 [Compound 18]
5 | 51 to 100 | O=C(O)c1cc(Br)ccc1NS(=O)(=O)c1cc(Cl)c(Cl)cc1Cl [Compound 4]
6 | 101 to 500 | O=C(O)c1cc(Br)ccc1NS(=O)(=O)c1ccc(Oc2ccccc2)cc1 [Compound 11]
7 | 101 to 500 | COc1ccc(OC)c(S(=O)(=O)Nc2ccc(Br)cc2C(=O)O)c1 [Compound 35]
8 | 51 to 100 | O=C(O)c1cc(Br)ccc1NS(=O)(=O)c1ccc(C(F)(F)F)cc1 [Compound 7]

same assay, conditions: Table 2, phosphate uptake, read-out: IC50

Row | IC50 [µM] | Compound
9 | > 1500 | O=C(Nc1ccccc1F)c1cc(Br)ccc1NS(=O)(=O)c1ccc(Cl)c([N+](=O)[O-])c1 [Compound 124]
10 | 101 to 500 | O=C(Nc1ccccc1Br)c1cc(Br)ccc1NS(=O)(=O)c1ccc(Cl)cc1 [Compound 90]
11 | > 1500 | Cc1c(Cl)cccc1NC(=O)c1cc(Br)ccc1NS(=O)(=O)c1ccc(Cl)c([N+](=O)[O-])c1 [Compound 122]
12 | 51 to 100 | COc1ccc(S(=O)(=O)Nc2ccc(Br)cc2C(=O)Nc2ccccc2Cl)cc1[N+](=O)[O-] [Compound 99]
13 | 51 to 100 | O=C(NCc1ccc(F)cc1F)c1cc(Br)ccc1NS(=O)(=O)c1ccc(OC(F)(F)F)cc1 [Compound 64]
14 | > 1500 | O=C(c1ccc(Cl)cc1)c1cc(NC(=O)c2cc(Br)ccc2NS(=O)(=O)c2ccc(Cl)cc2)ccc1Cl [Compound 96]
15 | 101 to 500 | COc1ccc(S(=O)(=O)Nc2ccc(Br)cc2C(=O)Nc2ccccc2C(=O)O)cc1[N+](=O)[O-] [Compound 107]
16 | > 1500 | Cc1c(Cl)cccc1NC(=O)c1cc(Br)ccc1NS(=O)(=O)c1ccc(Cl)cc1 [Compound 93]
17 | 501 to 1000 | Cc1ccc(CNC(=O)c2cc(Br)ccc2NS(=O)(=O)c2ccc(OC(F)(F)F)cc2)cc1 [Compound 82]
18 | 101 to 500 | COc1ccc(CNC(=O)c2cc(Br)ccc2NS(=O)(=O)c2ccc(OC(F)(F)F)cc2)cc1 [Compound 77]
19 | 51 to 100 | O=C(Nc1ccc(Cl)c(Cl)c1)c1cc(Br)ccc1NS(=O)(=O)c1ccc(OC(F)(F)F)cc1 [Compound 59]
20 | 101 to 500 | O=C(Nc1cccc(Cl)c1)c1cc(Br)ccc1NS(=O)(=O)c1ccc(OC(F)(F)F)cc1 [Compound 78]
21 | > 1500 | Cc1ccccc1NC(=O)c1cc(Br)ccc1NS(=O)(=O)c1ccc(Cl)c([N+](=O)[O-])c1 [Compound 121]
22 | 51 to 100 | O=C(NCc1ccc(OC(F)(F)F)cc1)c1cc(Br)ccc1NS(=O)(=O)c1ccc(OC(F)(F)F)cc1 [Compound 60]
23 | 51 to 100 | O=C(Nc1cc(Cl)ccc1Cl)c1cc(Br)ccc1NS(=O)(=O)c1ccc(Cl)c([N+](=O)[O-])c1 [Compound 115]
24 | 101 to 500 | CC(C)(C)c1ccc(NC(=O)c2cc(Br)ccc2NS(=O)(=O)c2ccc(OC(F)(F)F)cc2)cc1 [Compound 71]
25 | 1000 to 1500 | Cc1cc(Br)ccc1NC(=O)c1cc(Br)ccc1NS(=O)(=O)c1ccc(OC(F)(F)F)cc1 [Compound 84]

same assay, conditions: Table 3, 100 μM compound

Row | Compound | % Inhib. At 100 μM [%]
26 | CCOC(=O)c1cc2cccc(NS(=O)(=O)c3ccc(OC(F)(F)F)cc3)c2[nH]1 [Compound 137] | 74
27 | O=S(=O)(Nc1cc(Cl)c(Cl)cc1Cl)c1cc(C(F)(F)F)cc(C(F)(F)F)c1 [Compound 127] | 101
28 | O=S(=O)(Nc1ccc(C(F)(F)F)cc1)c1ccc(NS(=O)(=O)c2ccc(C(F)(F)F)cc2)cc1 [Compound 131] | 80
29 | Cc1cc(C)c(S(=O)(=O)n2cc(/C=C/C(=O)O)c3ccccc32)c(C)c1 [Compound 144] | 64
30 | O=S(=O)(Nc1ccccc1NS(=O)(=O)c1cc(C(F)(F)F)cc(C(F)(F)F)c1)c1cc(C(F)(F)F)cc(C(F)(F)F)c1 [Compound 176] | 36
31 | O=S(=O)(Nc1ccc(Oc2ccccc2)cc1)c1ccc(OC(F)(F)F)cc1 [Compound 129] | 84
32 | CN(C)c1ccc(NS(=O)(=O)c2cc(C(F)(F)F)cc(C(F)(F)F)c2)cc1 [Compound 130] | 81
33 | NC(=O)c1ccccc1NS(=O)(=O)c1ccc(OC(F)(F)F)cc1 [Compound 166] | 22

same assay, conditions: Table 4, phosphate uptake, read-out: IC50

Row | IC50 [µM] | Compound
34 | 101 to 500 | CC(C)c1cccc(C(C)C)c1NC(=O)Nc1ccc(Br)cc1P(=O)(O)O [Compound 191]
35 | 501 to 1000 | Cc1cccc(C)c1NC(=O)Nc1ccc(Br)cc1P(=O)(O)O [Compound 196]
36 | > 1500 | O=C(Nc1ccc(Cl)cc1)Nc1ccc(Br)cc1P(=O)(O)O [Compound 213]
37 | 101 to 500 | O=C(Nc1cc(F)cc(C(F)(F)F)c1)Nc1ccc(Br)cc1P(=O)(O)O [Compound 184]
38 | > 1500 | CCOc1ccc(NC(=O)Nc2ccc(Br)cc2P(=O)(O)O)cc1 [Compound 212]
39 | 1000 to 1500 | CCOC(=O)c1cccc(NC(=O)Nc2ccc(Br)cc2P(=O)(O)O)c1 [Compound 208]

Second part, the molecule before the results:

Row | Compound | IC50 [µM]
40 | N#Cc1cccc(NC(=O)Nc2ccc(Br)cc2P(=O)(O)O)c1 [Compound 197] | 501 to 1000
41 | O=C(NCc1ccccc1)Nc1ccc(Br)cc1P(=O)(O)O [Compound 201] | 501 to 1000

same assay, conditions: Table 5, 100 μM compound

Row | Compound | % Inhib. at 100 μM [%]
42 | O=C(Nc1cccc(C(F)(F)F)c1)N1CCc2ccccc21 [Compound 225] | 80
43 | O=C(Nc1cccc(C(F)(F)F)c1)Nc1c(Cl)cccc1Cl [Compound 218] | 93
44 | O=C(Nc1cccc(C(F)(F)F)c1)Nc1ccccc1Cl [Compound 223] | 85

same assay, conditions: Table 6, 100 μM compound

Row | Compound | % Inhib. at 100 μM [%]
45 | COc1ccc(-c2cc(-c3ccco3)on2)cc1 [Compound 231] | 74
46 | c1ccc(Oc2ccc(C3=NOC(c4ccco4)C3)cc2)cc1 (centres unmarked) [Compound 233] | 68
47 | Cn1nc(-c2cc(Cl)cc(Cl)c2O)cc1-c1ccc(Br)cc1 [Compound 238] | 16

same assay, conditions: Table 7, phosphate uptake, read-out: IC50

Row | IC50 [µM] | Compound
48 | > 1500 | Cn1nc(-c2ccc(Oc3ccccc3)cc2)cc1-c1ccco1 [Compound 244]

same assay, conditions: Table 10, phosphate uptake, read-out: IC50

Row | IC50 [µM] | Compound
49 | 101 to 500 | O=C(Nc1cc(C(F)(F)F)ccc1C(F)(F)F)c1cc(Br)cc(Br)c1O [Compound 256]
50 | > 1500 | O=C(Nc1ccc(Br)cc1P(=O)(O)O)c1ccc(OC(F)(F)F)cc1 [Compound 268]

More lines, now with the values behind:

Row | Compound | IC50 [µM]
51 | CCOP(=O)(OCC)c1cc(Br)ccc1NC(=O)c1cc(C(F)(F)F)ccc1C(F)(F)F [Compound 264] | 101 to 500
52 | O=C(Nc1ccc(Br)cc1)c1cc(Br)cc(Br)c1 [Compound 266] | 501 to 1000
53 | O=C(Nc1ccccc1)c1ccccc1P(=O)(O)O [Compound 269] | > 1500

same assay, conditions: Table 12, 100 μM compound

Row | Compound | % Inhib. at 100 μM [%]
54 | Cc1cccc(CS(=O)(=O)c2ccc(Cl)cc2)c1F [Compound 282] | 53
55 | Cc1cc(S(=O)(=O)Cc2ccc(Cl)c(Cl)c2)c(Cl)cc1Cl [Compound 284] | 51

same assay, conditions: Table 13, phosphate uptake, read-out: IC50

Row | IC50 [µM] | Compound
56 | < 50 | O=S(=O)(O)c1cc(/N=N/c2ccc(O)cc2)ccc1/C=C/c1ccc(/N=N/c2ccc(O)cc2)cc1S(=O)(=O)O [Compound 292]
57 | > 1500 | Oc1ccc(/C=C/c2ccc(O)cc2)cc1 [Compound 306]
58 | 501 to 1000 | O=S(=O)(O)c1cc(NS(=O)(=O)c2cccc(Cl)c2)ccc1/C=C/c1ccc(NS(=O)(=O)c2cccc(Cl)c2)cc1S(=O)(=O)O [Compound 301]

Row | Compound | IC50 [µM]
59 | O=[N+]([O-])c1ccc(S(=O)(=O)Nc2ccc(/C=C/c3ccc(NS(=O)(=O)c4ccc([N+](=O)[O-])cc4)cc3S(=O)(=O)O)c(S(=O)(=O)O)c2)cc1 [Compound 303] | 501 to 1000
